# Assay results as given in the Kinase Knowledgebase extract (Sharma et al. 2016).
# Biological target: MAPK14 (human) (UniProt Q16539)
# Test: Inhibition of MAPK14 Kinase Activity
# Sequence of MAPK14 (human) (Q16539 whole entry, looked up): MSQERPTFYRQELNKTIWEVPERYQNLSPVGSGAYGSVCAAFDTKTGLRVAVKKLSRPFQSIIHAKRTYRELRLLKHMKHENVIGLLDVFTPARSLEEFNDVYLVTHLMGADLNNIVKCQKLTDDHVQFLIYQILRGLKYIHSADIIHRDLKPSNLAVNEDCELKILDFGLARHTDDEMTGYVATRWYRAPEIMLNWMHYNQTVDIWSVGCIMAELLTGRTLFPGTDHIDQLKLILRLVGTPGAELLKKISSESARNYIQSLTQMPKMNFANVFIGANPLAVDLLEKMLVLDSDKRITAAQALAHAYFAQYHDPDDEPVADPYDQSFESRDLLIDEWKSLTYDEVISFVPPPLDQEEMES
row,Structure (SMILES),IC50 [µM]
1,CC(=O)Nc1ccc(-c2cnc3ccc4ccncc4c3c2)cc1,> 20
2,CC(C)(C)NS(=O)(=O)c1ccc(-c2cnc3cccc(Nc4ccc(Cl)cn4)c3c2)cc1,> 20
3,CC(C)(C)NS(=O)(=O)c1ccc(-c2cnc3cccc(Nc4ccccn4)c3c2)cc1,> 20
4,CS(=O)(=O)Nc1ccc(-c2cnc3cccc(-c4ccncc4)c3c2)cc1,> 20
5,CS(=O)(=O)Nc1ccc(-c2cnc3cccc(Nc4ccc(Cl)cn4)c3c2)cc1,> 20
6,CS(=O)(=O)Nc1ccc(-c2cnc3cccc(Nc4ncccn4)c3c2)cc1,> 20
7,c1ccc(-c2cnc3ccc4ccncc4c3c2)cc1,> 20
8,Oc1ccc(-c2cnc3ccc4ccncc4c3c2)cc1,> 20
9,Nc1ccc(-c2cnc3ccc4ccncc4c3c2)cc1,> 20
10,CS(=O)(=O)Nc1ccc(-c2cnc3ccc4ccncc4c3c2)cc1,> 20
11,CS(=O)(=O)N(c1ccc(-c2cnc3ccc4ccncc4c3c2)cc1)S(C)(=O)=O,> 20
12,CS(=O)(=O)Nc1ccc(-c2cnc3cccc(-c4cccnc4)c3c2)cc1,> 20
13,CS(=O)(=O)Nc1ccc(-c2cnc3cccc(Nc4ccccn4)c3c2)cc1,> 20
